Laboratory results taken from paper PMC4077652, “An Unstable Th Epitope of P. falciparum Fosters Central Memory T Cells and Anti-CS Antibody Responses” (PLoS ONE, 2014).
Like-named read-outs stand apart in the source and are kept apart here. Where no end group is shown, it is not given here.

How the values were obtained:
HLA-DRβ1*04:01 (DR4) [1] = target: T1, HLA-DRβ1*04:01 (DR4) (Homo sapiens, UniProt P01903+P01911, A100K/A169T/F76Y/I96L/K127E/L162R/M171V/N62H/P40V/Q125Y/R42H/S133A/S149N/S66Y/V115G/V209L/W38E); experiment: biochemical; assay type: binding
HLA-DR4 = HLA-DR4 (Homo sapiens, UniProt P01903+P01911, A100K/A169T/F76Y/I96L/K127E/L162R/M171V/N62H/P40V/Q125Y/R42H/S133A/S149N/S66Y/V115G/V209L/W38E); conditions: binding to HLA-DR4, previously reported; read-out: IC50, competition binding assay; cited from earlier work
HLA-DRβ1*04:01 (DR4) [2] = target: T1, HLA-DRβ1*04:01 (DR4); experiment: biochemical; assay type: binding; remark: listed apart in the source
[3] = IC50, competition binding assay

Molecule	IC50 (HLA-DRβ1*04:01 (DR4) [1]) [µM]	other results
Ac-STEWSPCS-NH2 [QN-336-343]	6740	–
Ac-ANSLSTEWSPCSVT-NH2 [Q332A]	1.19	–
Ac-QNSLSAEWSPCSVT-NH2 [T337A]	1.3	–
Ac-QNSLSTEWSACSVT-NH2 [P341A]	7.75	–
Ac-QNSLSTEASPCSVT-NH2 [W339A]	1.42	–
Ac-QNSLSTEWSPASVT-NH2 [C342A]	0.73	–
Ac-QNSLATEWSPCSVT-NH2 [S336A]	0.91	–
Ac-QNSLSTEWSPCS-NH2 [QN-332-343]	5.58	–
Ac-QASLSTEWSPCSVT-NH2 [N333A]	2.65	–
Ac-LSTEWSPCS-NH2 [QN-335-343]	75.8	–
CC(C)[C@H](NC(=O)[C@H](CC(N)=O)NC(=O)[C@@H]1CCCN1C(=O)[C@H](CC(N)=O)NC(=O)[C@H](C)NC(=O)[C@H](CC(N)=O)NC(=O)[C@@H]1CCCN1C(=O)[C@H](CC(=O)O)NC(=O)[C@@H](NC(=O)[C@H](CC(N)=O)NC(=O)[C@@H]1CCCN1C(=O)[C@H](CC(N)=O)NC(=O)[C@H](C)NC(=O)[C@H](CC(N)=O)NC(=O)[C@@H]1CCCN1C(=O)[C@@H](N)CC(=O)O)C(C)C)C(=O)O [T1, reference compound]	–	IC50 (HLA-DRβ1*04:01 (DR4) [1]; IC50, binding to DRβ1*04:01): ~18 µM
Ac-SLSTEWSPCSVT-NH2 [QN-334-345]	2.82	–
Ac-QNSLSTEWSPCSAT-NH2 [V344A]	0.44	–
SLSTEWSPCSV [T*-5]	–	IC50 (HLA-DR4): 0.9 µM
Ac-QNSASTEWSPCSVT-NH2 [L335A]	68.4	–
Ac-QNALSTEWSPCSVT-NH2 [S334A]	1.14	–
Ac-QNSLSTEWSPCAVT-NH2 [S343A]	0.7	–
Ac-QNSLSTEWSPCSVA-NH2 [T345A]	0.71	–
Ac-QNSLSTAWSPCSVT-NH2 [E338A]	3.4	–
QNSYSTEWSPCSVT [QNT-Y]	–	Kd (HLA-DRβ1*04:01 (DR4) [2]; Kd (nM) DM+): 35.7 ± 20.5 nM; Kd (HLA-DRβ1*04:01 (DR4) [2]; Kd (nM) DM-): 25.5 ± 10.7 nM; IC50 (HLA-DRβ1*04:01 (DR4) [1]; IC50 (quoted from Table 2)): ~0.5 µM; IC50 (HLA-DRβ1*04:01 (DR4) [1]; [3]): ~0.13 µM; IC50 (HLA-DRβ1*04:01 (DR4) [1]; IC50 range values (95% C.I.)): 0.124 to 0.14 µM
QNSLSTEWSPCSVT [QNT-5]	–	Kd (HLA-DRβ1*04:01 (DR4) [2]; apparent equilibrium binding affinity, […], DR-ELISA, read-out: Kd (nM) DM+): 714.1 ± 3.9 nM; Kd (HLA-DRβ1*04:01 (DR4) [2]; apparent equilibrium binding affinity, […], DR-ELISA, read-out: Kd (nM) DM-): 504 ± 86.2 nM; IC50 (HLA-DRβ1*04:01 (DR4) [1]; IC50 (quoted from Table 2)): ~0.025 µM; IC50 (HLA-DRβ1*04:01 (DR4) [1]; [3]): ~1.7 µM; IC50 (HLA-DRβ1*04:01 (DR4) [1]; IC50 range values (95% C.I.)): 1.53 to 1.85 µM
Ac-QNSLSTEWAPCSVT-NH2 [S340A]	24.6	–
